In patent US6433012B1, “Method for inhibiting inflammatory disease” (Large Scale Biology Corp., priority 1998, dated 2002):
Marks after values point to notes of the source that are not given here. Each block holds one molecule with its values, some of them ahead of it.

Legend:
[1] = test system: angiogenesis induced by hFGF-B in the chick chorioallantoic membrane (CAM); assay: Chick chorioallantoic membrane (CAM) assay, 14C-proline incorporation into collagenous protein; format: in vivo; design: inhibition of hFGF-B-induced angiogenesis: dose or concentration left out as unconfirmed
Description: This example illustrates the anti-angiogenic properties of methyl-3,5-diiodo-4-(4′-methoxyphenoxy)benzoate in the chick chorioallantoic membrane assay (CAM). The endpoint of the CAM assay was a quantitative determination of basement membrane biosynthesis by measuring the incorporation of ^14C-proline into Type IV collagenous protein.
The CAM assay involves the development of live chick embryos in Petri dishes under special sterile conditions. Therefore, only limited numbers of embryos can be used for evaluation of compounds in a single experiment. For this reason, two separate assays were conducted to test the three Biosource compounds at three concentrations per compound. In this assay, a known angiogenesis inhibitor, 2-methoxyestradiol (2-ME), was used as the positive control, and human fibroblast growth factor (hFGF) was used to induce angiogenesis in the CAM.
For testing, a minimum amount of acetone-methanol (1:1) was added to the test compounds for sterilization. The acetone-methanol mixture was then evaporated to dryness in a sterile hood. The compounds were dissolved dimethyl sulfoxide (DMSO) first and then diluted with saline containing methylcellulose. The final concentrations were 2% DMSO and 0.5% methylcellulose. All test solutions were added to each CAM in […].
Fresh fertile eggs were incubated for three days in a standard egg incubator. On Day 3, eggs were cracked under sterile conditions and embryos were placed in 20×100 mm plastic Petri dishes and cultivated at 37° C. in an embryo incubator with a water reservoir on the bottom shelf. Air was continuously bubbled into the water reservoir by using a small pump so that the humidity in the incubator was kept constant. Observations were made daily to ensure that all embryos were healthy. Dead or unhealthy embryos were removed from the incubator immediately to avoid contamination. On Day 9, a sterile silicone ring cup was placed on each CAM and […] of ^14C-proline with or without the test compound plus 2.5 ng of hFGF dissolved in saline containing 0.5% methylcellulose was delivered into each ring cup in a sterile hood. 2-ME was tested in parallel to serve as a reference compound. After addition of test materials, the embryos were returned to the incubator and cultivation continued. On Day 12, all embryos were transferred to a cold room at 4-10° C. The antiangiogenic effect of each test compound was determined by using the collagenase assay (Maragoudakis, et al., J. Pharm. Exp. Ther. 251:679-682 (1989)) to measure ^14C-proline incorporation into collagenous protein.
With the embryos placed on ice, a piece of CAM 10 mm in diameter was cut off under each ring cup and placed in a separate tube. To each tube was added 1.0 mL of phosphate-buffered saline (PBS, pH 7.3) containing 0.11 mg cycloheximide and 0.17 mg dipyridyl. The tubes were placed in a boiling water bath for 10 min and then cooled to room temperature. The PBS in each tube was discarded after centrifugation at 3000× g for 10 min. The CAM residue was washed once with 3 mL of 15% TCA and then three times with 3 mL of 5% TCA. Centrifugation was carried out as described above between each washing. At this point all non-protein bound radioactivity was removed, and the CAM containing the newly synthesized ^14C-collagenous protein was suspended in 0.9 mL of 0.1 N NaOH and 1.1 mL of HEPES buffer at pH 7.4. The pH of the sample was neutralized with 0.8 N HCl, using phenol red as indicator.
To digest the ^14C-collagenous protein, 7.5 units of collagenase and 500 nmol of calcium chloride in […] of HEPES buffer was added to the above samples, and mixtures were incubated at 37° C. for 4 h. The reaction was stopped by adding 1.0 mL of 20% TCA containing 5 mg of tannic acid into each tube. After vortex mixing, the samples were centrifuged at 3000× g for 10 min. […]

[2] = test system: MCF-7 human breast carcinoma cells; assay: Chromosome condensation / prometaphase arrest; format: cell-based; conditions: 1 μM for 24 h
[3] = test system: TNF-α mRNA in murine macrophage PU5-1.8 cell line; assay: TNF-α mRNA in LPS-stimulated macrophages (Northern blot); format: cell-based
Method: The murine macrophage PU5-1.8 cell line was purchased from the American Type Culture Collection (ATCC, Rockville, Md.). Cells were grown in DMEM medium supplemented with […], 0.1 mM nonessential amino acids, 2 mM glutamine and 5% fetal bovine serum (Life Technologies, Staten Island, N.Y.). Cells were maintained in a humidified atmosphere of 5% CO2-95% air at 37° C. Cells were passages twice weekly by firmly tapping the side of the flask to dislodge the adherent cells. Both nonadherent and adherent cells were passages. Exponentially growing cells were seeded at 5×10 ^5/mL, 4mL per 60-mm dish 24 h prior to the experiment. Test compounds were delivered in 1 mL volumes of the medium added to each dish at the start of the experiment. All dishes were incubated at 37° C. in 5% CO2-95% air for 3 h.
Total RNA was isolated by the guanidinium-cesium chloride method as described in N. S. Waleh, J. Gallo, T. D. Grant, B. J. Murphy, R. H. Kramer and R. M. Sutherland. (1994) “Selective downregulation of integrin receptors in spheroids of squamous cell carcinoma” Cancer Res., 54:838-843. Five to 10 μg of total RNA was electrophoresed in 1% agarose gels containing 6% formaldehyde. Following electrophoresis, gels were stained with ethidium bromide to visualize the positions of 28S and 18S RNA. The RNAs were then transferred to nylon membranes (Amersham Hybond N) by capillary blotting and fixed to the filter by exposure to UV light. The blots were probed with ^32P-labeled cDNA sequences of human TNF-α obtained from the American Type Culture Collection (ATCC). The TNF-α cDNA was a 1.1 kb PstI fragment of plasmid pE4 in E. coli MM294 (ATCC 39894). Hybridizations were carried out at 42° C. in 50% formamide, 5×SSC, 5×Denhardt's solution, 0.1% SDS, and 0.3 mg/mL salmon sperm DNA. Filters were washed by 1×SSC, 0.1% SDS, twice at room temperature for 15 min and once at 55° C. in 0.1×SSC, 0.1% SDS for 1 hr. Filters were exposed to X-ray film at −70° C. using an intensifying screen (Coronex Hi-Plus).
Hybridized bands were quantified by analyzing the images obtained by using a video densitometer (Applied Imaging Corporation, Santa Clara, Calif.). Film densities were calibrated using an optical-density wedge.

[4] = test system: purified tubulin; conditions: as a function of colchicine or vinblastine concentration
Description: Tubulin-binding antimitotic drugs interact with the protein at diverse sites.

[5] = Table 1 experiment, dose 8.3 μg/CAM
[6] = Table 1 experiment, dose 25 μg/CAM
[7] = Table 1 experiment, dose 75 μg/CAM
[8] = Table 2 experiment, dose 8.3 μg/CAM
[9] = Table 2 experiment, dose 25 μg/CAM
[10] = Table 2 experiment, dose 75 μg/CAM

SMILES: COc1cc2c(cc1O)CC[C@@H]1[C@@H]2CC[C@]2(C)[C@@H](O)CC[C@@H]12 [2-Methoxyestradiol, 2-methoxyestradiol, reference compound]
inhibition of hFGF-B-induced angiogenesis [1]: 38%
% Inhibition [1, 5]: 9%
^14C-Proline Incorporated into Collagenous Protein (mean ± S.E.) [1, 5]: 5711 ± 1469 cpm/mg-protien
% Inhibition [1, 6]: 20%
^14C-Proline Incorporated into Collagenous Protein (mean ± S.E.) [1, 6]: 5068 ± 1609 cpm/mg-protien
% Inhibition [1, 7]: 38%
^14C-Proline Incorporated into Collagenous Protein (mean ± S.E.) [1, 7]: 3875 ± 891 cpm/mg-protien
% Inhibition [1, 8]: 6%
^14C-Proline Incorporated into Collagenous Protein (mean ± S.E.) [1, 8]: 10499 ± 1372 cpm/mg-protien
% Inhibition [1, 9]: 35%
^14C-Proline Incorporated into Collagenous Protein (mean ± S.E.) [1, 9]: 7303 ± 1424 cpm/mg-protien
% Inhibition [1, 10]: 38%
^14C-Proline Incorporated into Collagenous Protein (mean ± S.E.) [1, 10]: 6984 ± 1022^b cpm/mg-protien

SMILES: COc1cc2c(c(OC)c1OC)-c1ccc(OC)c(=O)cc1[C@@H](NC(C)=O)CC2 [colchicine, reference compound]
chromosome condensation (prometaphase arrest) [2]: produced identical chromosome condensation patterns
inhibition of TNF-α mRNA accumulation ([3]; 10 μM added to LPS (100 ng/mL) treated cultures, 3 h): 68%
effect on TNF-α mRNA expression, compound only ([3]; 10 μM, without LPS, 3 h): no effect
total RNA integrity ([3]; cells treated with different concentrations): intact

effect of competitor on binding of 14C-labeled BTO-956 to tubulin [4]: had no effect
SMILES: CC[C@]1(O)C[C@@H]2CN(CCc3c([nH]c4ccccc34)[C@@](C(=O)OC)(c3cc4c(cc3OC)N(C)[C@H]3[C@@](O)(C(=O)OC)[C@H](OC(C)=O)[C@]5(CC)C=CCN6CC[C@]43[C@@H]65)C2)C1 [vinblastine]
